Laboratory results from US4323550A, “Halogenohydrates of N,N-disubstituted derivatives of piperazine having anticariogenic properties” (priority 1976, dated 1982).

Tests used:
[1] = Acute oral toxicity in mice; format: in vivo; conditions: in vivo, mouse, read-out: dose up to which no symptom occurs
Description: (§1) By way of example there are described below the comparative tests made on difluorohydrate of N,N'-di(hydroxyethyl) piperazine and on fluorohydrate of hexadecylamine or "ELMEX 242".
(§2) The acute toxidity was studies in rats and in mice.
(§3) The animals came from a homogeneous breed. The mice weighed between 19 and 21 g and the rats weighed from 120 to 140 g. The mice were grouped in lots of 10 and the rats in lots of 8.
(§4) The administrations took place orally at a volume of 0.5 ml per 20 g of mouse and 1 ml per 100 g of rat. The LD50 was determined by the method of Lichfield and Wilcoxon.
(§5) As regards the difluorohydrate of N,N'-di(hydroxyethyl) piperazine, the administered solution was prepared by diluting the mother solution to 65.4%, the dilutions being made after having weighed this solution. The administered dose is expressed by weight, taking account of the indicated strength of this solution.
(§6) For the solid "ELMEX 242" an aqueous suspension was prepared with the aid of solubilizing agents (e.g. Tween-polyoxyethylene sorbitan monolaurate). A very thick suspension is then obtained which tends to foam heavily, is difficult to get into the esophageal sound, and the determination of its volume is rendered difficult by the foam.
(§7) The results obtained with the "ELMEX" are therefore rather approximate.

[2] = test system: mice; assay: Acute oral toxicity in mice; format: in vivo
Description: as §1, §2, §3, §4, §5, §6, §7

[3] = Penetration of fluorine 18 into dental enamel after topical application (Muhlemann biopsy); set-up: species or system children
Text: The anticariogenic activity of the difluorohydrate of N,N'-di(hydroxy-ethyl) piperazine has been evidenced by comparison with sodium fluoride known for its cariopreventive topical properties. A comparative study has been made of the penetration into the dental enamel of the fluorine contained in the molecule according to the invention and of the fluorine contained in sodium fluoride.
For this comparison the difluorohydrate of N,N'-di(hydroxy-ethyl) piperazine was marked at the fluorine 18, by isotopic exchange by dissolving some crystals of the product according to the invention in a solution of pure fluorine 18 without entrainer. The same was done for the sodium fluoride.
The study of the penetration of the fluorine into the enamel was made on several teeth to compare the behavior of the product of the invention and of sodium fluoride in supplying fluorine and in the penetration of the latter into the deepest layers of the dental tissue.
The tests were performed on 30 premolar teeth taken from normal children 9 to 11 years old. Eighteen teeth were treated by topical application of the radioactive solutions of the difluoro-hydrate of N,N'-di(hydroxy-ethyl) piperazine or of NaF adjusted to pH=3.5; the other 12 were treated with the same solutions adjusted to a pH of 7.4.
(§8) The radioactive solutions are obtained by dissolving 69 mg of the difluorohydrate and 81.3 mg of NaF, respectively, in 1 and 3 ml of fluorine 18 solution without entrainer. Thus solutions titering 1.23% fluorine are obtained.
(§9) As the difluorohydrate solution is already at pH=3.5, it is sufficient to acidify the NaF solution by addition of about 0.2 ml hydrochloric acid 6 M, to 3 ml of the radioactive solution.
In this case, the difluorohydrate's nature of organic salt can be preserved and its solution neutralized at 1.23% of fluorine in 1 ml by addition of about 110 mg of its N,N'-di(hydroxyethyl) piperazine base.
For the experimentation one determines two enamel plagues on each tooth. For this, one applies on the crowns, separated from each other by 2 or 3 mm, two round disks of a diameter of 3 mm cut out from adhesive tape. The crown is then covered with a layer of impermeable varnish. When the varnish is dry, the patches of adhesive tape are removed, thus bearing the two zones of enamel to be treated.
The spot application of the fluorinated solution is done by means of a sponge imbibed with 0.5 ml of the solution. This sponge is inserted in a polyethylene tube to limit the surface of contact between tooth and sponge to the circumference of the enamel zone treated.
The sampling of the enamel is done by Muhlemann's biopsy technique: A patch of blotting paper impregnated with 4 microliters of perchloric acid 2 M is applied on the trated enamel for 30 seconds. The enamel is dried with a second patch of blotting paper. It is on these patches which contain the dissolved enamel that we measure the radioactivity.
There are given in Table I all the results relating to the acid treatment, in Table II all the results relating to the treatment at neutral pH. The fluorine values are those obtained by measuring the radioactivity of the samples.
The columns […] and N2 represent the mass of fluorine measured on the second biopsy.
We have marked R1 and R1 and R2 the ratios G1 /G2 and N1 /N2, and R3 the ratio. [formula] R1 and R2 permitting to compare the quantities of fluorine at the same depth. R3 permits comparing the accumulation of fluorine in the tooth.

[4] = Hygroscopicity; format: physicochemical; conditions: crystals
[5] = pH of the difluorohydrate solution; format: physicochemical; conditions: solution titering 1.23% fluorine
Description: as §8, §9

[6] = Ionizable fluorine content; format: physicochemical

OCCN1CCN(CCO)CC1 [DIFLUOROHYDRATE OF N,N'-DI(HYDROXY-ETHYL) PIPERAZINE]
NOAEL at 240 h [1]: ≥ 400 mg/kg
toxicity compared with ELMEX 242 ([2]; conclusion from mouse and rat, solution versus suspension): clearly more toxic than "ELMEX 242"
course: death and recovery ([2]; mouse): Death occurs after one hour at the highest doses.
symptoms ([2]; mouse): At higher doses the mice are totally immobile. They show light trembling, but over the entire body, also diarrhea.
Deaths ([2]; mouse, 200 mg/kg, D + 1, 10 per lot): 0
Deaths ([2]; mouse, 200 mg/kg, D + 2, 10 per lot): 0
Deaths ([2]; mouse, 200 mg/kg, D + 5, 10 per lot): 0
Deaths ([2]; mouse, 200 mg/kg, D + 10, 10 per lot): 0
Deaths ([2]; mouse, 300 mg/kg, D + 1, 10 per lot): 0
Deaths ([2]; mouse, 300 mg/kg, D + 2, 10 per lot): 0
Deaths ([2]; mouse, 300 mg/kg, D + 5, 10 per lot): 0
Deaths ([2]; mouse, 300 mg/kg, D + 10, 10 per lot): 0
Deaths ([2]; mouse, 400 mg/kg, D + 1, 10 per lot): 2
Deaths ([2]; mouse, 400 mg/kg, D + 2, 10 per lot): 3
Deaths ([2]; mouse, 400 mg/kg, D + 5, 10 per lot): 3
Deaths ([2]; mouse, 400 mg/kg, D + 10, 10 per lot): 3
Deaths ([2]; mouse, 500 mg/kg, D + 1, 10 per lot): 3
Deaths ([2]; mouse, 500 mg/kg, D + 2, 10 per lot): 5
Deaths ([2]; mouse, 500 mg/kg, D + 5, 10 per lot): 5
Deaths ([2]; mouse, 500 mg/kg, D + 10, 10 per lot): 5
Deaths ([2]; mouse, 600 mg/kg, D + 1, 10 per lot): 4
Deaths ([2]; mouse, 600 mg/kg, D + 2, 10 per lot): 7
Deaths ([2]; mouse, 600 mg/kg, D + 5, 10 per lot): 8
Deaths ([2]; mouse, 600 mg/kg, D + 10, 10 per lot): 8
Deaths ([2]; mouse, 700 mg/kg, D + 1, 10 per lot): 9
Deaths ([2]; mouse, 700 mg/kg, D + 2, 10 per lot): 10
Deaths ([2]; mouse, 700 mg/kg, D + 5, 10 per lot): 10
Deaths ([2]; mouse, 700 mg/kg, D + 10, 10 per lot): 10
Deaths ([2]; mouse, 800 mg/kg, D + 1, 10 per lot): 7
Deaths ([2]; mouse, 800 mg/kg, D + 2, 10 per lot): 8
Deaths ([2]; mouse, 800 mg/kg, D + 5, 10 per lot): 9
Deaths ([2]; mouse, 800 mg/kg, D + 10, 10 per lot): 9
Deaths ([2]; mouse, 1000 mg/kg, D + 1, 10 per lot): 10
Deaths ([2]; mouse, 1000 mg/kg, D + 2, 10 per lot): 10
Deaths ([2]; mouse, 1000 mg/kg, D + 5, 10 per lot): 10
Deaths ([2]; mouse, 1000 mg/kg, D + 10, 10 per lot): 10
persistence of the ill state ([2]; mouse, doses above 400 mg/kg): at least 24 hours
time to onset of coma ([2]; mouse, doses above 400 mg/kg): about 45 minutes
cases with R1 less than 1 ([3]; acid medium, 18 teeth): 16 cases
cases with R3 between 1 and 1.7 ([3]; acid medium, 18 teeth): 8 cases
cases with R3 greater than 1.7 ([3]; acid medium, 18 teeth): 4 cases
cases with R3 less than 1 ([3]; acid medium, 18 teeth): 5 cases
mean value of R3 ([3]; acid medium, 18 teeth, standard deviation 0.6): 1.5
cases with R1 greater than 1 ([3]; neutral medium, 12 teeth): 10 cases
cases with R3 between 1 and 1.7 ([3]; neutral medium, 12 teeth): 7 cases
cases with R3 greater than 1.7 ([3]; neutral medium, 12 teeth): 2 cases
cases with R3 less than 1 ([3]; neutral medium, 12 teeth): 3 cases
mean value of R1 ([3]; neutral medium, 12 teeth): 3.0
average of R3 ([3]; neutral medium, 12 teeth, standard deviation 0.4): 1.2
average fluorine sampled in the two biopsies, acid pH compared with neutral pH ([3]; pH 3.5 versus pH 7.4): 2.6
anticariogenic action compared with sodium fluoride ([3]; same pH conditions): effects comparable to those of sodium fluoride
hygroscopicity [4]: very hygroscopic
hygroscopicity ([4]; listed as difluorohydrate): particularly hygroscopic
pH of the solution [5]: 3.5
ionizable fluorine content [6]: 15.18%
